Measured values taken from patent US20100003191A1, “AURONE DERIVATIVE-CONTAINING COMPOSITION FOR DIAGNOSIS” (NAGASAKI UNIVERSITY, priority 2006, published 2010).

How the values were obtained:
Ab(1-42) aggregates = target: T1, Ab(1-42) aggregates (Homo sapiens, UniProt P05067); assay: Binding inhibition experiment using Ab(1-42) aggregates, inhibition constants (Ki), radioligand [125I](Z)-2-(4-aminobenzylidene)-5-iodobenzofuran-3(2H)-one (Table 14); conditions: Aβ42 aggregates
T1 construct: Ab(1-42) was dissolved in 10 mM phosphate buffer containing 1 mM EDTA (pH 7.4)
Description: Ab(1-42) was dissolved in 10 mM phosphate buffer containing 1 mM EDTA (pH 7.4) to give a concentration of 0.25 mg/mL, and the mixture was incubated at 37° C. for 42 h to thereby prepare Ab(1-42) aggregates.
[…] of 10% EtOH solution, […] of a solution of [^125I](Z)-2-(4-aminobenzylidene)-5-iodobenzofuran-3(2H)-one in 10% ethanol, and […] of a sample solution at various concentrations ([…]) were mixed. Finally, […] of Ab(1-42) aggregate solution was added thereto, and the mixture was allowed to stand at room temperature for 3 h. Ab(1-42) aggregate-bound compounds and nonbound compounds were separated with a Brandel M-24R cell harvester using a Whatman GF/B filter. Radioactivities remaining on the filter were measured with a γ-counter, and inhibition curves were created using Graph Pad Prism 4.0 to calculate inhibition constants (Ki values).
In order to calculate inhibition constants (Ki values) for various aurone derivatives synthesized, binding inhibition experiments were performed using [^125I](Z)-2-(4-aminobenzylidene)-5-iodobenzofuran-3(2H)-one as a radioactive ligand. […] Thus, aurone derivatives have shown a high binding property to amyloid aggregates. No difference in binding property resulting from the length of introduced ethyleneoxy chains was observed.

[1] = male, ddY, mouse, in vivo, 2 min
Description: Animals were decapitated at 2, 10, 30 or 60 min after the injection, and the blood was collected. Then, major organs were removed, and weights and radioactivities thereof were measured.
In vivo radioactivity distribution experiments of ^125I-labeled aurone derivatives were performed using 5-week-old normal mice.

Aβ(1-42) aggregate = target: T2, Aβ(1-42) aggregate (Homo sapiens, UniProt P05067); assay: In vitro binding experiment of [125I]-labeled aurone derivatives using Aβ(1-42) aggregates; conditions: [125I]-labeled compounds, Ab(1-42) aggregates; for intensity of the binding property to Ab aggregates (order): radioactivity remaining on filter, FIG. 4
T2 construct: Amyloid (3 protein (Human, 1-42) [TFA form] was purchased from Peptide Institute, Inc); purchased Peptide Institute, Inc
Description: Aβ aggregates were prepared by dissolving in a buffer containing 10 mM sodium phosphate and 1 mM EDTA (pH 7.4) at a concentration of 0.5 mg/mL and incubating at 37° C. for 42 h. The binding experiment was performed using 12×75 mm borosilicate glass tubes. [^125I]IMPY used for comparison was prepared according to the method described previously (Zhuang Z P, Kung M P, Wilson A, Lee C W, Plossi K, Hou C, Holzman D M, Kung H F. Structure-activity relationship of imidazo[1,2-a]pyridines as ligands for detecting β-amyloid plaques in the brain. J. Med. Chem. 2003, 46(2): 237-43). 900 μL of 10% ethanol solution, 50 μL of [^125I]-labeled aurone derivative with various concentrations (in 10% aqueous ethanol) or 50 μL of [^125I]IMPY, and 50 μL (29 nM) of an Aβ(1-42) aggregate solution were mixed, and the mixture was allowed to stand at room temperature for 3 h. Aβ3 aggregate-bound aurone derivative and nonbound aurone derivative were separated with a Brandel M-24R cell harvester using Whatman GF/B filters. The radioactivities of substances remaining on the filter used for filtration were measured with a γ counter.
FIGS. 4 and 5 show the results of experiments in which aurone derivatives were reacted in the presence and absence of Ab aggregates; the reaction mixture was filtered with a cell harvester; and the remaining radioactivity on the filter was measured. […] The intensity of the binding property increased in the following order: [^125I] Compound 7>[^125I] Compound 12=[^125I] IMPY>[^125I] Compound 14=[^125I] Compound 17>[^125I] Compound 20 (FIG. 4). The binding property to Ab aggregates of those compounds with —NH2, OMe- and OH group in their side chains are lower than the binding property of [^125] IMPY. On the other hand, those compounds with NHMe- and NMe2 group show equal or higher binding property to Ab aggregates compared to the binding property of [^125I] IMPY. […] Among all, the binding of Compound 7 to Ab aggregates was equal or more than the binding of [^125I] IMPY which is clinically tested at present. Therefore, it has become clear that this compound satisfies a critical requirement as an imaging probe for amyloid β.

[2] = test system: senile plaques on brain sections from Tg2576 mice; assay: Fluorescence staining and immunostaining on brain sections from transgenic mice; type: binding; conditions: Tg2576 mouse brain sections, FIG. 9
Description: As Alzheimer's disease model mouse, Tg2576 mice (20-month-old) were used. Brain tissues were removed and frozen in carboxymethyl cellulose (4%). Then, a series of sections 10 μm thick were prepared therefrom. The thus prepared sections were reacted with a ligand (a solution of Compound 26 and thioflavin in 50% EtOH) for 3 min. Then, the sections were washed with 50% EtOH (1 min×twice) and observed under a fluorescence microscope. Further, using adjacent sections, immunostaining was performed by conventional methods with anti-amyloid (3(1-42) antibody.
Fluorescence staining was performed on brain sections from Alzheimer's disease model mouse (Tg2576) utilizing the fluorescence property of Compound 26 (FIG. 9).

[3] = test system: senile plaque amyloid on hippocampal sections from Alzheimer's disease patients; assay: In vitro autoradiography and immunostaining on brain sections from Alzheimer's disease patients (Example 2); type: binding, human; conditions: AD patient brain sections, FIG. 10
Description: Hippocampal sections (5 μm thick) from Altzheimer's disease patients were dewaxed by washing with xylene ((5 min×2) and with 100% EtOH, 100% EtOH, 95% EtOH, 85% EtOH and 70% EtOH (1 min×1 for each). After air-drying, the sections were reacted with a ligand (40% EtOH solution) for 1 h. Then, the sections were washed with saturated aqueous lithium carbonate solution in 40% EtOH (2 min×2), with 40% EtOH (2 min×2) and with water (30 sec×1), and immobilized on imaging plates for 24 h. Subsequently, the sections were analyzed with BAS2500. Further, using adjacent sections, immunostaining was performed by conventional methods with anti-amyloid β(1-42) antibody.
Autoradiography was performed on brain sections from Altzheimer's disease patients with [^125I]26 (FIG. 10).

T1 sequence (P05067 672-713 limits assumed): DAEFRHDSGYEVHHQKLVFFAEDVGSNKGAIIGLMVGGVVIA
T2 sequence (P05067 672-713 limits assumed): as above

| SMILES | Ki (Ab(1-42) aggregates) [nM] | migration of radioactivity to the brain [1] | intensity of the binding property to Ab aggregates (order) (Aβ(1-42) aggregate) | also measured |
| --- | --- | --- | --- | --- |
| O=C1/C(=C/c2ccc(OCCOCCO)cc2)Oc2ccc(I)cc21 [Compound 27, (Z)-2-(4-(2-(2-hydroxyethoxy)ethoxy)benzylidene)-5-iodobenzofuran-3(2H)-one] | 3.36 ± 0.29 | 2.4-4.5 % ID/g |  |  |
| O=C1/C(=C/c2ccc(OCCOCCOCCO)cc2)Oc2ccc(I)cc21 [Compound 28, (Z)-2-(4-(2-(2-(2-hydroxyethoxy)ethoxy)ethoxy)benzylidene)-5-iodobenzofuran-3(2H)-one] | 2.56 ± 0.31 | 2.4-4.5 % ID/g |  |  |
| Nc1ccc(/C=C2\Oc3ccc(I)cc3C2=O)cc1 [Compound 14, 5-iodo-4′-aminoauron] |  |  | [^125I] Compound 14=[^125I] Compound 17 |  |
| CNc1ccc(/C=C2\Oc3ccc(I)cc3C2=O)cc1 [Compound 12, 5-iodo-4′-methylaminoaurone] |  |  | [^125I] Compound 12=[^125I] IMPY |  |
| CN(C)c1ccc(/C=C2\Oc3ccc(I)cc3C2=O)cc1 [Compound 7, 5-iodo-4′-dimethylaminoaurone] |  |  | [^125I] Compound 7>[^125I] Compound 12 | binding property to Ab aggregates compared with [125I]IMPY (Aβ(1-42) aggregate): equal or more than the binding of [^125I] IMPY |
| O=C1/C(=C/c2ccc(O)cc2)Oc2ccc(I)cc21 [Compound 20, 5-iodo-4′-hydroxyaurone] |  |  | >[^125I] Compound 20 |  |
| O=C1/C(=C/c2ccc(OCCO)cc2)Oc2ccc(I)cc21 [Compound 26, (Z)-2-(4-(2-hydroxyethoxy)benzylidene)-5-iodobenzofuran-3(2H)-one] | 1.05 ± 0.06 | 2.4-4.5 % ID/g |  | fluorescence image on brain sections [2]: consistent with the fluorescence image of thioflavin S on adjacent section and the immunostaining image of anti-amyloid antibody on adjacent section; radioactivity in autoradiography vs immunostaining [3]: observed at the positive site of immunostaining with anti-amyloid antibody |
| COc1ccc(/C=C2\Oc3ccc(I)cc3C2=O)cc1 [Compound 17, 5-iodo-4′-methoxyaurone] |  |  | [^125I] Compound 17>[^125I] Compound 20 |  |
